Data published in ChEMBL document CHEMBL3885881, “DrugMatrix”.

Species: Rattus norvegicus
Test: DrugMatrix - Regimen: Daily Repeat
Type: toxicity, organism-based, Sprague-Dawley
Set-up: regimen Daily Repeat, gender Male, age 6-8 weeks
Details: in vivo, po, route oral GAVAGE, vehicle .5 % CMC; for ABSOLUTE BASOPHIL / BASOPHIL / EOSINOPHIL / ERYTHROCYTE COUNT / HEMATOCRIT / HEMOGLOBIN / LEUKOCYTE COUNT / LYMPHOCYTE / MEAN CORPUSCULAR HEMOGLOBIN / MEAN CORPUSCULAR HEMOGLOBIN CONCENTRATION / MEAN CORPUSCULAR VOLUME / MONOCYTE / NEUTROPHIL / PLATELET COUNT: tissue Blood; for ALANINE AMINOTRANSFERASE / ALKALINE PHOSPHATASE / ASPARTATE AMINOTRANSFERASE / BLOOD UREA NITROGEN / CHLORIDE / CHOLESTEROL / CREATINE PHOSPHOKINASE / CREATININE / GLUCOSE / PHOSPHORUS / POTASSIUM / SODIUM / TOTAL BILIRUBIN / TOTAL PROTEIN: tissue Plasma
[1] = 0 mg/kg, 72 h, dose level Control, time 3 day
[2] = 0 mg/kg, 120 h, dose level Control, time 5 day
[3] = 20 mg/kg, 72 h, dose level Low, time 3 day
[4] = 20 mg/kg, 120 h, dose level Low, time 5 day
[5] = 89 mg/kg, 72 h, dose level High, time 3 day
[6] = 89 mg/kg, 120 h, dose level High, time 5 day

`CC(C(=O)O)c1ccc2oc(-c3ccc(Cl)cc3)nc2c1` (configuration not stated) [BENOXAPROFEN] was tested, and the ABSOLUTE BASOPHIL [1] was 16.7 cells/µL, the BASOPHIL [1] was 0.17% and the EOSINOPHIL [1] was 0.62%. For the same compound, the “ERYTHROCYTE COUNT” value [1] was 6.55 x10E6/uL, the HEMATOCRIT [1] was 42% and the HEMOGLOBIN [1] was 13.48 G/DL. The “LEUKOCYTE COUNT” value [1] was 8.79 x10E3/uL, the LYMPHOCYTE [1] was 76.98% and the “MEAN CORPUSCULAR HEMOGLOBIN” value [1] was 20.57 pg. For the same compound, the “MEAN CORPUSCULAR HEMOGLOBIN CONCENTRATION” value [1] was 32.08 G/DL, the “MEAN CORPUSCULAR VOLUME” value [1] was 64.1 fL and the MONOCYTE [1] was 2.12%. For the same compound, the NEUTROPHIL [1] was 19%, the “PLATELET COUNT” value [1] was 1432.17 x10E3/uL and the “ALANINE AMINOTRANSFERASE” value [1] was 42.83 u/L. For the same compound, the “ALKALINE PHOSPHATASE” value [1] was 328.5 u/L, the “ASPARTATE AMINOTRANSFERASE” value [1] was 78.33 u/L and the “BLOOD UREA NITROGEN” value [1] was 14.5 mg/dL. The CHLORIDE [1] was 104.5 MEQ/L, the CHOLESTEROL [1] was 78.67 mg/dL and the “CREATINE PHOSPHOKINASE” value [1] was 282.33 u/L. It also gave a CREATININE [1] of 0.25 mg/dL, a GLUCOSE [1] of 173.67 mg/dL and a PHOSPHORUS [1] of 12.83 mg/dL. The POTASSIUM [1] was 6.7 MEQ/L, the SODIUM [1] was 145.83 MEQ/L and the “TOTAL BILIRUBIN” value [1] was 0.4 mg/dL. For the same compound, the “TOTAL PROTEIN” value [1] was 5.93 G/DL, the ABSOLUTE BASOPHIL [2] was 28 cells/µL and the BASOPHIL [2] was 0.26%. For the same compound, the EOSINOPHIL [2] was 0.44%, the “ERYTHROCYTE COUNT” value [2] was 6.99 x10E6/uL and the HEMATOCRIT [2] was 45.12%. The HEMOGLOBIN [2] was 14.26 G/DL, the “LEUKOCYTE COUNT” value [2] was 9.42 x10E3/uL and the LYMPHOCYTE [2] was 79.92%. The “MEAN CORPUSCULAR HEMOGLOBIN” value [2] was 20.44 pg, the “MEAN CORPUSCULAR HEMOGLOBIN CONCENTRATION” value [2] was 31.62 G/DL and the “MEAN CORPUSCULAR VOLUME” value [2] was 64.6 fL. For the same compound, the MONOCYTE [2] was 2.2%, the NEUTROPHIL [2] was 16.14% and the “PLATELET COUNT” value [2] was 1062.2 x10E3/uL. The “ALANINE AMINOTRANSFERASE” value [2] was 44 u/L, the “ALKALINE PHOSPHATASE” value [2] was 342.6 u/L and the “ASPARTATE AMINOTRANSFERASE” value [2] was 74.17 u/L. The “BLOOD UREA NITROGEN” value [2] was 13 mg/dL, the CHLORIDE [2] was 103 MEQ/L and the CHOLESTEROL [2] was 72.83 mg/dL. The “CREATINE PHOSPHOKINASE” value [2] was 184.67 u/L, the CREATININE [2] was 0.47 mg/dL and the GLUCOSE [2] was 168.17 mg/dL. It also gave a PHOSPHORUS [2] of 12.27 mg/dL, a POTASSIUM [2] of 6.98 MEQ/L and an SODIUM [2] of 147 MEQ/L. The “TOTAL BILIRUBIN” value [2] was 0.65 mg/dL, the “TOTAL PROTEIN” value [2] was 6.23 G/DL and the ABSOLUTE BASOPHIL [3] was 20 cells/µL. For the same compound, the BASOPHIL [3] was 0.23%, the EOSINOPHIL [3] was 0.43% and the “ERYTHROCYTE COUNT” value [3] was 6.67 x10E6/uL. For the same compound, the HEMATOCRIT [3] was 42.8%, the HEMOGLOBIN [3] was 13.83 G/DL and the “LEUKOCYTE COUNT” value [3] was 10.28 x10E3/uL. For the same compound, the LYMPHOCYTE [3] was 78.07%, the “MEAN CORPUSCULAR HEMOGLOBIN” value [3] was 20.73 pg and the “MEAN CORPUSCULAR HEMOGLOBIN CONCENTRATION” value [3] was 32.33 G/DL. For the same compound, the “MEAN CORPUSCULAR VOLUME” value [3] was 64.2 fL, the MONOCYTE [3] was 2.7% and the NEUTROPHIL [3] was 16.57%. For the same compound, the “PLATELET COUNT” value [3] was 1248 x10E3/uL, the “ALANINE AMINOTRANSFERASE” value [3] was 44.67 u/L and the “ALKALINE PHOSPHATASE” value [3] was 316.67 u/L. For the same compound, the “ASPARTATE AMINOTRANSFERASE” value [3] was 75.67 u/L, the “BLOOD UREA NITROGEN” value [3] was 13.33 mg/dL and the CHLORIDE [3] was 104.33 MEQ/L. For the same compound, the CHOLESTEROL [3] was 64.33 mg/dL, the “CREATINE PHOSPHOKINASE” value [3] was 179 u/L and the CREATININE [3] was 0.33 mg/dL. The GLUCOSE [3] was 176.67 mg/dL, the PHOSPHORUS [3] was 12.2 mg/dL and the POTASSIUM [3] was 6.37 MEQ/L. The SODIUM [3] was 146.33 MEQ/L, the “TOTAL BILIRUBIN” value [3] was 0.37 mg/dL and the “TOTAL PROTEIN” value [3] was 5.7 G/DL. The ABSOLUTE BASOPHIL [4] was 56.7 cells/µL, the BASOPHIL [4] was 0.6% and the EOSINOPHIL [4] was 0.53%. The “ERYTHROCYTE COUNT” value [4] was 7.47 x10E6/uL, the HEMATOCRIT [4] was 48.6% and the HEMOGLOBIN [4] was 15.37 G/DL. For the same compound, the “LEUKOCYTE COUNT” value [4] was 8.81 x10E3/uL, the LYMPHOCYTE [4] was 79.3% and the “MEAN CORPUSCULAR HEMOGLOBIN” value [4] was 20.53 pg. For the same compound, the “MEAN CORPUSCULAR HEMOGLOBIN CONCENTRATION” value [4] was 31.57 G/DL, the “MEAN CORPUSCULAR VOLUME” value [4] was 65.03 fL and the MONOCYTE [4] was 2.53%. For the same compound, the NEUTROPHIL [4] was 15.73%, the “PLATELET COUNT” value [4] was 1097 x10E3/uL and the “ALKALINE PHOSPHATASE” value [4] was 357.67 u/L. For the same compound, the “ASPARTATE AMINOTRANSFERASE” value [4] was 65 u/L, the “BLOOD UREA NITROGEN” value [4] was 13.33 mg/dL and the CHLORIDE [4] was 104.67 MEQ/L. For the same compound, the CHOLESTEROL [4] was 59.33 mg/dL, the “CREATINE PHOSPHOKINASE” value [4] was 158.33 u/L and the CREATININE [4] was 0.43 mg/dL. It also gave a GLUCOSE [4] of 175.33 mg/dL, a PHOSPHORUS [4] of 12.03 mg/dL and a POTASSIUM [4] of 7.37 MEQ/L. The SODIUM [4] was 150.67 MEQ/L, the “TOTAL BILIRUBIN” value [4] was 0.33 mg/dL and the “TOTAL PROTEIN” value [4] was 6.43 G/DL. It also gave an ABSOLUTE BASOPHIL [5] of 46.7 cells/µL, a BASOPHIL [5] of 0.87% and an EOSINOPHIL [5] of 0.43%. For the same compound, the “ERYTHROCYTE COUNT” value [5] was 5.74 x10E6/uL, the HEMATOCRIT [5] was 35.5% and the HEMOGLOBIN [5] was 11.63 G/DL. The “LEUKOCYTE COUNT” value [5] was 4.56 x10E3/uL, the LYMPHOCYTE [5] was 64.07% and the “MEAN CORPUSCULAR HEMOGLOBIN” value [5] was 20.27 pg. The “MEAN CORPUSCULAR HEMOGLOBIN CONCENTRATION” value [5] was 32.8 G/DL, the “MEAN CORPUSCULAR VOLUME” value [5] was 61.93 fL and the MONOCYTE [5] was 4.3%. For the same compound, the NEUTROPHIL [5] was 29.23%, the “PLATELET COUNT” value [5] was 1116 x10E3/uL and the “ALANINE AMINOTRANSFERASE” value [5] was 30.67 u/L. The “ALKALINE PHOSPHATASE” value [5] was 216.33 u/L, the “ASPARTATE AMINOTRANSFERASE” value [5] was 71 u/L and the “BLOOD UREA NITROGEN” value [5] was 13 mg/dL. The CHLORIDE [5] was 105 MEQ/L, the CHOLESTEROL [5] was 81 mg/dL and the “CREATINE PHOSPHOKINASE” value [5] was 293 u/L. It also gave a CREATININE [5] of 0.37 mg/dL, a GLUCOSE [5] of 179 mg/dL and a PHOSPHORUS [5] of 11.33 mg/dL. For the same compound, the POTASSIUM [5] was 6.47 MEQ/L, the SODIUM [5] was 142.33 MEQ/L and the “TOTAL BILIRUBIN” value [5] was 0.33 mg/dL. For the same compound, the “TOTAL PROTEIN” value [5] was 4.93 G/DL, the ABSOLUTE BASOPHIL [6] was 80 cells/µL and the BASOPHIL [6] was 0.75%. The EOSINOPHIL [6] was 0.5%, the “ERYTHROCYTE COUNT” value [6] was 3.39 x10E6/uL and the HEMATOCRIT [6] was 21.15%. The HEMOGLOBIN [6] was 6.75 G/DL, the “LEUKOCYTE COUNT” value [6] was 9.48 x10E3/uL and the LYMPHOCYTE [6] was 62%. For the same compound, the “MEAN CORPUSCULAR HEMOGLOBIN” value [6] was 20.05 pg, the “MEAN CORPUSCULAR HEMOGLOBIN CONCENTRATION” value [6] was 32.38 G/DL and the “MEAN CORPUSCULAR VOLUME” value [6] was 61.98 fL. For the same compound, the MONOCYTE [6] was 3.5%, the NEUTROPHIL [6] was 36% and the “PLATELET COUNT” value [6] was 1019.25 x10E3/uL. The “ALANINE AMINOTRANSFERASE” value [6] was 205.75 u/L, the “ALKALINE PHOSPHATASE” value [6] was 329.75 u/L and the “ASPARTATE AMINOTRANSFERASE” value [6] was 292.5 u/L. For the same compound, the “BLOOD UREA NITROGEN” value [6] was 38.75 mg/dL, the CHLORIDE [6] was 103.5 MEQ/L and the CHOLESTEROL [6] was 101 mg/dL. The “CREATINE PHOSPHOKINASE” value [6] was 255.75 u/L, the CREATININE [6] was 0.33 mg/dL and the GLUCOSE [6] was 163.25 mg/dL. For the same compound, the PHOSPHORUS [6] was 10.22 mg/dL, the POTASSIUM [6] was 5.38 MEQ/L and the SODIUM [6] was 143.25 MEQ/L. The “TOTAL BILIRUBIN” value [6] was 0.42 mg/dL and the “TOTAL PROTEIN” value [6] was 4.65 G/DL.
